From patent publication US20130196984A1, “3-AMINO-5-PHENYL-56-DIHYDRO-2H-[1,4]OXAZINES” (Siena Biotech S.p.A., priority 2009, published 2013)
Counter-ions that a name gives are not always drawn.

Legend:
BACE2 [1] = target: T1, BACE2 (Homo sapiens, UniProt Q9Y5Z0); assay: Assay A: binding studies using SPR based methods, immobilised BACE2; conditions: CM5 chip, immobilised BACE2 enzyme ectodomain, acetate buffer pH 4.6, 4% DMSO
T1 construct: BACE2 enzyme ectodomain (derived from plasmid “pET17b-T7-hu proBACE2”); T7 (N); made in house
T1 sequence (Q9Y5Z0 63-473 limits assumed): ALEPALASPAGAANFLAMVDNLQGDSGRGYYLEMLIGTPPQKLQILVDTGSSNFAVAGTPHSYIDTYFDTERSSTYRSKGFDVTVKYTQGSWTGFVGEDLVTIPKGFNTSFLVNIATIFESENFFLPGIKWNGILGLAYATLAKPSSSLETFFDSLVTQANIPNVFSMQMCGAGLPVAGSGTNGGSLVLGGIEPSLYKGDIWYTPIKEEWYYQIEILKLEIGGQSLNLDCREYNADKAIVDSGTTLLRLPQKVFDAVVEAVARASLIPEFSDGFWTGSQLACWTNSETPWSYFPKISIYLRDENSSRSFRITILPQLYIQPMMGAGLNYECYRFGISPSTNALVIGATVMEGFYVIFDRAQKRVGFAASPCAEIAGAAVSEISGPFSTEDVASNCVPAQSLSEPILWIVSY

BACE2 [2] = target: T2, BACE2 (Rattus norvegicus, UniProt Q6IE75); assay: Assay for BACE inhibition by measuring cellular TMEM27 cleavage; assay type: cell-based; conditions: INS-TMEM27 (INS1e-derived) cells, ELISA of shed human TMEM27 in supernatant;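 note: inhibitor added 2 h before doxycycline-induced hTMEM27 expression, supernatant collected after further 46 h, endogenous BACE2 activity read as reduced TMEM27 shedding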
T2 construct: endogenous cellular BACE2 in the Ins1e rat cell line; endogenous in cells; host or cells: INS-TMEM27 (INS1e-derived rat cell line with doxycycline-inducible full-length hTMEM27)
T2 sequence (Q6IE75 63-514): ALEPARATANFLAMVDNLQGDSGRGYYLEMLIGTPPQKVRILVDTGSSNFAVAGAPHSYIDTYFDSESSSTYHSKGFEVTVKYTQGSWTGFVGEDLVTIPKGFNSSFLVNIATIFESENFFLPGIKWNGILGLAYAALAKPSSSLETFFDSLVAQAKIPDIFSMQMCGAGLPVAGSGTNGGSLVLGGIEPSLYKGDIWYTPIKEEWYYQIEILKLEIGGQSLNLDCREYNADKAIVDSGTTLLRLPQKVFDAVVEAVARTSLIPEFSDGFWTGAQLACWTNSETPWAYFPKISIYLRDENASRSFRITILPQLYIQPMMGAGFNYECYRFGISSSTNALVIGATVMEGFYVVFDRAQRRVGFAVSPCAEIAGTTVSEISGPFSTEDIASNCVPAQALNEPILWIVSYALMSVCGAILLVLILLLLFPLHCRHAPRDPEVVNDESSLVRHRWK

BACE1 [3] = target: T3, BACE1 (Homo sapiens, UniProt P56817); assay: Cellular Abeta-lowering assay; assay type: cell-based; design: endogenous in cells; host or cells: HEK293 stably transfected with human APP695 wt; conditions: HEK293 cells stably transfected with human APP wt (APP695), Aβ40 ELISA of supernatant after 18-20 hrs
BACE1 [4] = target: T3, BACE1; assay: Assay A: binding studies using SPR based methods, immobilised BACE1; design: 6his-tagged full length BACE 1 expressed in SF9 cells; 6His; made in house; host or cells: SF9 insect cells; conditions: CM5 chip, immobilised 6his-tagged full length BACE 1, acetate buffer pH 4.6, 4% DMSO;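 note: KD from a 1:1 kinetic fit (koff/kon) of real-time association and dissociation curves, or for fast binders from end-of-association equilibrium responses plotted against log concentration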

T3 sequence (P56817 46-501): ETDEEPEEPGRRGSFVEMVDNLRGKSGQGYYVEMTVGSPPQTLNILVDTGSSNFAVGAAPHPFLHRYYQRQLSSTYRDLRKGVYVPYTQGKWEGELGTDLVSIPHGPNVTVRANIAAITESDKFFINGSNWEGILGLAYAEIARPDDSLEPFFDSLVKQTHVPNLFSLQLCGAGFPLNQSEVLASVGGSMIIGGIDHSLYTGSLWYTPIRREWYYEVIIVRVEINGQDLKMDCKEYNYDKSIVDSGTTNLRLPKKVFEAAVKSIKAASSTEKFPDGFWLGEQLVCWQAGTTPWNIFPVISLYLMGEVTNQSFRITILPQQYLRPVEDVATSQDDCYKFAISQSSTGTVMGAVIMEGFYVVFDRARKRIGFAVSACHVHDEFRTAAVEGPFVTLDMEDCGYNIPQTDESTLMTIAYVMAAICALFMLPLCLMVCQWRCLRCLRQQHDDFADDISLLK

Structure (SMILES)	Kd (BACE2 [1])	IC50 (BACE2 [2])	IC50 (BACE1 [3])	Kd (BACE1 [4])
Cc1cc(C(=O)Nc2cccc(C3(C)COCC(N)=N3)c2)c(C)o1 (racemic) [Example 13, (RS)-2,5-dimethylfuran-3-carboxylic acid [3-(5-amino-3-methyl-3,6-dihydro-2H-[1,4]oxazin-3-yl)-phenyl]-amide]	0.033 µM	0.051 µM	0.024 µM	0.445 µM
C[C@@]1(c2cc(NC(=O)c3ccc(Cl)cn3)ccc2F)CO[C@@H](Cc2ccccc2)C(N)=N1 (racemic) [Example 29, 5-Chloro-pyridine-2-carboxylic acid [3-((3R,6S)— and (3S,6R)-5-amino-6-benzyl-3-methyl-3,6-dihydro-2H-[1,4]oxazin-3-yl)-4-fluoro-phenyl]-amide]	0.006 µM	0.14 µM	0.05 µM	0.058 µM
Cc1nc(C(=O)Nc2ccc(F)c([C@]3(C)COCC(N)=N3)c2)co1 [Example 39, 2-methyl-oxazole-4-carboxylic acid [3-((R)-5-amino-3-methyl-3,6-dihydro-2H-[1,4]oxazin-3-yl)-4-fluoro-phenyl]-amide]	0.008 µM	0.13 µM	0.028 µM	0.045 µM
CC1(C)OCC(N)=N[C@]1(C)c1cc(NC(=O)c2ccc(OCC(F)(F)F)cn2)ccc1F [Example 50, 5-(2,2,2-trifluoro-ethoxy)-pyridine-2-carboxylic acid [3-((R)-5-amino-2,2,3-trimethyl-3,6-dihydro-2H-[1,4]oxazin-3-yl)-4-fluoro-phenyl]-amide]	2.1 µM	1.4 µM	0.039 µM	0.9 µM
C[C@@]1(c2cc(NC(=O)c3ncccc3OCC(F)(F)F)ccc2F)COCC(N)=N1 [Example 48, 3-(2,2,2-trifluoro-ethoxy)-pyridine-2-carboxylic acid [3-((R)-5-amino-3-methyl-3,6-dihydro-2H-[1,4]oxazin-3-yl)-4-fluoro-phenyl]-amide]	0.115 µM	0.052 µM	0.35 µM	1.2 µM
CC1(C)OCC(N)=N[C@]1(C)c1cc(NC(=O)C2CC2(F)F)ccc1F (mixture of isomers) [Example 56, (RS)-2,2-difluoro-cyclopropanecarboxylic [3-((R)-5-amino-2,2,3-trimethyl-3,6-dihydro-2H-[1,4]oxazin-3-yl)-4-fluoro-phenyl]-amide]	1.72 µM	> 10 µM	1.19 µM	10.8 µM
Cc1ccsc1C(=O)Nc1ccc(F)c([C@]2(C)COCC(N)=N2)c1 [Example 44, 3-methyl-thiophene-2-carboxylic acid [3-((R)-5-amino-3-methyl-3,6-dihydro-2H-[1,4]oxazin-3-yl)-4-fluoro-phenyl]-amide]	0.043 µM	0.31 µM	0.47 µM	1.82 µM
C[C@@]1(c2cc(NC(=O)C3CC3(F)F)ccc2F)COCC(N)=N1 (mixture of isomers) [Example 53, (RS)-2,2-difluoro-cyclopropanecarboxylic acid [3-((R)-5-amino-3-methyl-3,6-dihydro-2H-[1,4]oxazin-3-yl)-4-fluoro-phenyl]-amide]	1.22 µM	0.91 µM	0.62 µM	3.95 µM
NC1=NC(c2cc(NC(=O)c3ccc(Cl)cn3)ccc2F)(C2CC2)COC1 (racemic) [Example 22, (RS)-5-Chloro-pyridine-2-carboxylic acid [3-(5-amino-3-cyclopropyl-3,6-dihydro-2H-[1,4]oxazin-3-yl)-4-fluoro-phenyl]-amide]	0.019 µM	0.011 µM	0.011 µM	0.14 µM
C[C@@]1(c2cc(NC(=O)c3ncc(Cl)cn3)ccc2F)COCC(N)=N1 [Example 35, 5-chloro-pyrimidine-2-carboxylic acid [3-((R)-5-amino-3-methyl-3,6-dihydro-2H-[1,4]oxazin-3-yl)-4-fluoro-phenyl]-amide]	0.004 µM	0.016 µM	0.015 µM	0.028 µM

The next lines start with the values.

Kd (BACE2 [1])	IC50 (BACE2 [2])	IC50 (BACE1 [3])	Kd (BACE1 [4])	Structure (SMILES)
0.256 µM	0.21 µM	0.047 µM	0.102 µM	C[C@@]1(c2cc(NC(=O)c3cnc(C(F)(F)F)cn3)ccc2F)COCC(N)=N1 [Example 81, 5-trifluoromethyl-pyrazine-2-carboxylic acid [3-((R)-5-amino-3-methyl-3,6-dihydro-2H-[1,4]oxazin-3-yl)-4-fluoro-phenyl]-amide formate]
0.113 µM	0.14 µM	0.046 µM	0.129 µM	C[C@@]1(c2cc(NC(=O)c3cnc(C(F)(F)F)cn3)ccc2F)COCC(N)=N1 [Example 82, 5-trifluoromethyl-pyrazine-2-carboxylic acid [3-((R)-5-amino-3-methyl-3,6-dihydro-2H-[1,4]oxazin-3-yl)-4-fluoro-phenyl]-amide formate]
0.002 µM	1.35 µM	0.004 µM	0.01 µM	C[C@@]1(c2cc(NC(=O)c3ncc(Cl)cc3F)ccc2F)COCC(N)=N1 [Example 74, 5-Chloro-3-fluoro-pyridine-2-carboxylic acid [3-((R)-5-amino-3-methyl-3,6-dihydro-2H-[1,4]oxazin-3-yl)-4-fluoro-phenyl]-amide hydrochloride]
0.477 µM	0.052 µM	0.12 µM	0.474 µM	CC(F)C(=O)Nc1ccc(F)c([C@]2(C)COCC(N)=N2)c1 (mixture of isomers) [Example 87, (RS)—N-[3-((R)-5-amino-3-methyl-3,6-dihydro-2H-[1,4]oxazin-3-yl)-4-fluoro-phenyl]-2-fluoro-propionamide formate]
0.025 µM	0.039 µM	0.003 µM	0.016 µM	C[C@@]1(c2cc(NC(=O)c3ccc(C#N)cn3)ccc2F)COCC(N)=N1 [Example 72, 5-cyano-pyridine-2-carboxylic acid [3-((R)-5-amino-3-methyl-3,6-dihydro-2H-[1,4]oxazin-3-yl)-4-fluoro-phenyl]-amide hydrochloride]
0.077 µM	0.083 µM	0.14 µM	0.261 µM	COCC(=O)Nc1ccc(F)c([C@]2(C)COCC(N)=N2)c1 [Example 84, N-[3-((R)-5-amino-3-methyl-3,6-dihydro-2H-[1,4]oxazin-3-yl)-4-fluoro-phenyl]-2-methoxy-acetamide formate]
0.15 µM	1.22 µM	0.22 µM	0.148 µM	CC(F)(F)C(=O)Nc1ccc(F)c([C@]2(C)COCC(N)=N2)c1 [Example 90, N-[3-((R)-5-amino-3-methyl-3,6-dihydro-2H-[1,4]oxazin-3-yl)-4-fluoro-phenyl]-2,2-difluoro-propionamide formate]
0.004 µM	0.001 µM	0.007 µM	0.014 µM	Cc1cc(Cl)cnc1C(=O)Nc1ccc(F)c([C@]2(C)COCC(N)=N2)c1 [Example 98, 5-chloro-3-methyl-pyridine-2-carboxylic acid [3-((R)-5-amino-3-methyl-3,6-dihydro-2H-[1,4]oxazin-3-yl)-4-fluoro-phenyl]-amide]
1.14 µM	0.095 µM	1.46 µM	0.994 µM	C[C@@]1(c2cc(NC(=O)C(F)F)ccc2F)COCC(N)=N1 [Example 91, N-[3-((R)-5-amino-3-methyl-3,6-dihydro-2H-[1,4]oxazin-3-yl)-4-fluoro-phenyl]-2,2-difluoro-acetamide formate]
0.045 µM	0.084 µM	0.7 µM	2.27 µM	C[C@@]1(c2cc(NC(=O)c3ncco3)ccc2F)COCC(N)=N1 [Example 80, oxazole-2-carboxylic acid [3-((R)-5-amino-3-methyl-3,6-dihydro-2H-[1,4]oxazin-3-yl)-4-fluoro-phenyl]-amide]
